In ChEMBL document CHEMBL1138190, “Synthesis and antibacterial activity of novel C12 vinyl ketolides” (J Med Chem, 2006):
In brackets after ≈: the same amount, converted by molar mass.

Columns and labels:
Type in all cases: functional
[1] = tested on: Staphylococcus epidermidis; experiment: Antibacterial activity against Staphylococcus epidermidis 14990
Staphylococcus aureus [2] = experiment: Antibacterial activity against Staphylococcus aureus 29213
Enterococcus faecalis [3] = experiment: Antibacterial activity against Enterococcus faecalis 29212
Streptococcus pneumoniae [4] = experiment: Antibacterial activity against Streptococcus pneumoniae 280-962
[5] = tested on: Staphylococcus epidermidis; experiment: Antibacterial activity against Staphylococcus epidermidis f50654
Enterococcus faecalis [6] = experiment: Antibacterial activity against Enterococcus faecalis bc11148-2
Streptococcus pneumoniae [7] = experiment: Antibacterial activity against Streptococcus pneumoniae Mef 5654
Streptococcus pneumoniae [8] = experiment: Antibacterial activity against Streptococcus pneumoniae Erm 6849
Haemophilus influenzae [9] = experiment: Antibacterial activity against Haemophilus influenzae 2762
Streptococcus pneumoniae [10] = experiment: Antibacterial activity against Streptococcus pneumoniae 49619
Streptococcus pneumoniae [11] = experiment: Antibacterial activity against Streptococcus pneumoniae 297-749
Haemophilus influenzae [12] = experiment: Antibacterial activity against Haemophilus influenzae 49247
Streptococcus pyogenes = experiment: Antibacterial activity against Streptococcus pyogenes 8668
Streptococcus pneumoniae [13] = experiment: Antibacterial activity against Streptococcus pneumoniae Mef S 3427
Staphylococcus aureus [14] = experiment: Antibacterial activity against Staphylococcus aureus 33591

Structure (SMILES) | MIC [1] [µg/mL] | MIC (Staphylococcus aureus [2]) [µg/mL] | MIC (Enterococcus faecalis [3]) [µg/mL] | MIC (Streptococcus pneumoniae [4]) [µg/mL] | MIC [5] [µg/mL] | MIC (Enterococcus faecalis [6]) [µg/mL] | MIC (Streptococcus pneumoniae [7]) [µg/mL] | MIC (Streptococcus pneumoniae [8]) [µg/mL] | MIC (Haemophilus influenzae [9]) [µg/mL] | MIC (Streptococcus pneumoniae [10]) [µg/mL] | MIC (Streptococcus pneumoniae [11]) [µg/mL] | MIC (Haemophilus influenzae [12]) [µg/mL] | MIC (Streptococcus pyogenes) [µg/mL] | MIC (Streptococcus pneumoniae [13]) [µg/mL] | MIC (Staphylococcus aureus [14]) [µg/mL]
C=C[C@]12OC(=O)N(CCCCn3cnc4cccnc43)[C@@H]1[C@@H](C)C(=O)[C@H](C)C[C@@](C)(OC)[C@H](O[C@@H]1O[C@H](C)C[C@H](N(C)C)[C@H]1O)[C@@H](C)C(=O)[C@@H](C)C(=O)O[C@@H]2CC | 0.1 (≈ 0.125 µM) | 0.2 (≈ 0.251 µM) | 0.1 (≈ 0.125 µM) | ≤ 0.05 | 0.2 (≈ 0.251 µM) | 0.78 (≈ 0.977 µM) | 0.78 (≈ 0.977 µM) | 12.5 (≈ 15.7 µM) | 0.78 (≈ 0.977 µM) | ≤ 0.05 | ≤ 0.05 | 1.56 (≈ 1.95 µM) | ≤ 0.05 | 0.1 (≈ 0.125 µM) | > 50
C=C[C@]12OC(=O)N(CCCCn3cnc(-c4ccc(O)nc4)c3)[C@@H]1[C@@H](C)C(=O)[C@H](C)C[C@@](C)(OC)[C@H](O[C@@H]1O[C@H](C)C[C@H](N(C)C)[C@H]1O)[C@@H](C)C(=O)[C@@H](C)C(=O)O[C@@H]2CC | 0.2 (≈ 0.238 µM) | 0.4 (≈ 0.476 µM) | 0.2 (≈ 0.238 µM) | ≤ 0.05 | 0.2 (≈ 0.238 µM) | 3.13 (≈ 3.73 µM) | 3.13 (≈ 3.73 µM) | 12.5 (≈ 14.9 µM) | 1.56 (≈ 1.86 µM) | ≤ 0.05 | ≤ 0.05 | 6.25 (≈ 7.44 µM) | ≤ 0.05 | 1.56 (≈ 1.86 µM) | > 50
C=C[C@]12OC(=O)N(CCCCn3cnc(-c4cnccn4)c3)[C@@H]1[C@@H](C)C(=O)[C@H](C)C[C@@](C)(OC)[C@H](O[C@@H]1O[C@H](C)C[C@H](N(C)C)[C@H]1O)[C@@H](C)C(=O)[C@@H](C)C(=O)O[C@@H]2CC | 0.1 (≈ 0.121 µM) | 0.2 (≈ 0.242 µM) | 0.1 (≈ 0.121 µM) | ≤ 0.05 | 0.2 (≈ 0.242 µM) | 0.4 (≈ 0.485 µM) | 0.78 (≈ 0.945 µM) | 0.2 (≈ 0.242 µM) | 1.56 (≈ 1.89 µM) | ≤ 0.05 | ≤ 0.05 | 3.13 (≈ 3.79 µM) | ≤ 0.05 | 0.1 (≈ 0.121 µM) | > 50
C=C[C@]12OC(=O)N(CCCCn3cc(-c4ccc(Cl)nc4)nc3C)[C@@H]1[C@@H](C)C(=O)[C@H](C)C[C@@](C)(OC)[C@H](O[C@@H]1O[C@H](C)C[C@H](N(C)C)[C@H]1O)[C@@H](C)C(=O)[C@@H](C)C(=O)O[C@@H]2CC | 0.1 (≈ 0.115 µM) | 0.2 (≈ 0.229 µM) | 0.1 (≈ 0.115 µM) | ≤ 0.05 | 0.2 (≈ 0.229 µM) | 3.13 (≈ 3.59 µM) | 0.78 (≈ 0.894 µM) | 0.4 (≈ 0.458 µM) | 1.56 (≈ 1.79 µM) | ≤ 0.05 | ≤ 0.05 | 6.25 (≈ 7.16 µM) | ≤ 0.05 | ≤ 0.05 | > 50

Other lines, results leading:

MIC [1] [µg/mL] | MIC (Staphylococcus aureus [2]) [µg/mL] | MIC (Enterococcus faecalis [3]) [µg/mL] | MIC (Streptococcus pneumoniae [4]) [µg/mL] | MIC [5] [µg/mL] | MIC (Enterococcus faecalis [6]) [µg/mL] | MIC (Streptococcus pneumoniae [7]) [µg/mL] | MIC (Streptococcus pneumoniae [8]) [µg/mL] | MIC (Haemophilus influenzae [9]) [µg/mL] | MIC (Streptococcus pneumoniae [10]) [µg/mL] | MIC (Streptococcus pneumoniae [11]) [µg/mL] | MIC (Haemophilus influenzae [12]) [µg/mL] | MIC (Streptococcus pyogenes) [µg/mL] | MIC (Streptococcus pneumoniae [13]) [µg/mL] | MIC (Staphylococcus aureus [14]) [µg/mL] | Structure (SMILES)
0.1 (≈ 0.125 µM) | 0.1 (≈ 0.125 µM) | 0.1 (≈ 0.125 µM) | ≤ 0.05 | 0.1 (≈ 0.125 µM) | 3.13 (≈ 3.93 µM) | 0.4 (≈ 0.502 µM) | 6.25 (≈ 7.84 µM) | 1.56 (≈ 1.96 µM) | ≤ 0.05 | ≤ 0.05 | 6.25 (≈ 7.84 µM) | ≤ 0.05 | 0.1 (≈ 0.125 µM) | > 50 | C=C[C@]12OC(=O)N(CCCCn3ccc4ncccc43)[C@@H]1[C@@H](C)C(=O)[C@H](C)C[C@@](C)(OC)[C@H](O[C@@H]1O[C@H](C)C[C@H](N(C)C)[C@H]1O)[C@@H](C)C(=O)[C@@H](C)C(=O)O[C@@H]2CC
0.1 (≈ 0.117 µM) | 0.1 (≈ 0.117 µM) | ≤ 0.05 | ≤ 0.05 | 0.1 (≈ 0.117 µM) | 0.4 (≈ 0.468 µM) | 0.78 (≈ 0.912 µM) | 0.4 (≈ 0.468 µM) | 0.78 (≈ 0.912 µM) | ≤ 0.05 | ≤ 0.05 | 6.25 (≈ 7.31 µM) | ≤ 0.05 | 0.2 (≈ 0.234 µM) | > 50 | C=C[C@]12OC(=O)N(CCCCn3cnc(-c4cnc(OC)nc4)c3)[C@@H]1[C@@H](C)C(=O)[C@H](C)C[C@@](C)(OC)[C@H](O[C@@H]1O[C@H](C)C[C@H](N(C)C)[C@H]1O)[C@@H](C)C(=O)[C@@H](C)C(=O)O[C@@H]2CC
0.1 (≈ 0.123 µM) | 0.1 (≈ 0.123 µM) | ≤ 0.05 | ≤ 0.05 | 0.78 (≈ 0.962 µM) | 0.625 (≈ 0.771 µM) | 0.78 (≈ 0.962 µM) | 3.13 (≈ 3.86 µM) | 3.13 (≈ 3.86 µM) | ≤ 0.05 | ≤ 0.05 | 3.13 (≈ 3.86 µM) | ≤ 0.05 | 0.1 (≈ 0.123 µM) | > 50 | C=C[C@]12OC(=O)N(CCCCn3ccc4c(N)cccc43)[C@@H]1[C@@H](C)C(=O)[C@H](C)C[C@@](C)(OC)[C@H](O[C@@H]1O[C@H](C)C[C@H](N(C)C)[C@H]1O)[C@@H](C)C(=O)[C@@H](C)C(=O)O[C@@H]2CC
